Measured values reported in patent publication US20070054258A1, “Method of removing mucus and cell treatment solution and preservative solution used therefor” (SYSMEX CORPORATION, priority 2003, published 2007).

Assays:
Type in all cases: cell-based
[1] = system: cell populations of clinical specimen; assay: Effect of the cell treatment solution on cell morphology; settings: 5 minutes compared with 1 minute
Method: The cell treatment solutions containing L-cysteine at concentrations of 5 mass %, 10 mass % and 20 mass % were used to treat cell populations of clinical specimen for 1 minute or 5 minutes in the same manner of the above, and the cells were observed. The results of each sample treated with the solutions containing 5 mass %, 10 mass % and 20 mass % L-cysteine for 1 minute and 5 minutes were shown in FIG. 9 to FIG. 14.

[2] = system: cell populations in a clinical specimen derived from uterine cervix; assay: Effect of removing mucus in clinical specimens of uterine cervix for cytodiagnosis (Giemsa stain, light microscope)
Method: Cell populations in a clinical specimen derived from uterine cervix which had been stored in 30 to 60 mass % methanol-based, buffered preservative solution (PreservCyt® manufactured by Cytyc Corporation) was transferred to a 1.5 ml centrifuge tube (about 1×10^5 cells/sample).
The solution was centrifuged (10000 rpm; 1 minute; 4° C.) to separate cells, and the supernatant was removed.
To the cells thus collected was added 1 ml of a mixture (hereinafter referred to as PBS-T) of 0.1% Tween 20 (Sigma) and 0.01M phosphate buffer (PBS available from Sigma; pH7.4) and the cells were resuspended.
The cells were washed by another centrifugation (10000 rpm, 1 minute, 4° C.) for cell separation, removal of the supernatant and cell collection. The cells washed were resuspended in 500 μl of the preservative solution.
10 mass % aqueous solution of N-acetyl-L-cysteine (hereinafter referred to as AcCys) was prepared for a cell treatment solution. This cell treatment solution was added to the cell suspension obtained from the above, and samples of B to E were prepared so that the AcCys concentrations in the samples were 0.625 mass %, 1.25 mass % or 5 mass %.
The solution obtained after the reaction was finished was then centrifuged (10000 rpm; 1 minute; 4° C.) to separate cells, and the supernatant was removed and cells were collected.
The cells were washed by resuspension in 1 ml of PBS-T, another centrifugation (10000 rpm; 1 minute, 4° C.) for cell separation, and removal of the supernatant. This washing procedure was repeated two times.
The cells collected were suspended in 300 μl of 100% methanol and mounted on a glass slide by using Cytospin. Then, cells on the slide were stained with 5% Giemsa Stain Solution (Sysmex) for 15 minutes, washed thoroughly with PBS, and observed under a light microscope to give micrographs of FIG. 1 to 5 for each sample of A to E. […]

squamous cells = assay: Staining with fluorescent-labeled anti-NMP 179 antibody after treatment; settings: cells treated with 5 mass % AcCys (FIG. 8)
Method: Squamous cells which were not treated with AcCys and squamous cells which were treated with 5 mass % AcCys were stained with a fluorescent-labeled anti-NMP 179 antibody which reacts with cells derived from uterine cervix except for normal uterine cervix squamous cells, and observed under a microscope to give each result of fluorescent image in FIG. 7 and FIG. 8.

Row | effect on cell morphology ([1]; 5 mass % L-cysteine) | effect on cell morphology ([1]; 10 mass % L-cysteine) | effect on cell morphology ([1]; 20 mass % L-cysteine) | SMILES | mucus part (black clumps) after treatment ([2]; AcCys 5 mass % (Sample E), room temperature, 1 minute) | mucus part (black clumps) after treatment ([2]; AcCys 5 mass % (Sample F), reaction time 24 hours) | mucus part (black clumps) after treatment ([2]; AcCys under 5 mass % (Samples B to D), room temperature, 1 minute) | specificity of fluorescent anti-NMP179 antibody staining (squamous cells)
1 | did not affect the cell morphology | did not affect the cell morphology | did not affect the cell morphology | N[C@@H](CS)C(=O)O [L-cysteine] | – | – | – | –
2 | – | – | – | CC(=O)N[C@@H](CS)C(=O)O [AcCys, N-acetyl-L-cysteine] | black clumps showing mucus part were disappeared | black clumps showing mucus part were disappeared | there remained black clumps which showed mucus part | specific staining
